Patent EP2979694B1, “Dimercaptosuccinic acid for the treatment of multidrug resistant bacterial infections” (priority 2014, dated 2016)

Tests used:
Experiment in all cases: MIC of carbapenems with or without DMSA
[1] = system: K.p. 6852; assay type: cell-based, K. pneumoniae; details: K.p. 6852, IMP-1 + SHV-5; no DMSA; unit assumed
Procedure: (§1) Minimum inhibitory concentrations (MICs) of carbapenems were determined in-vitro with strains (reference and clinical) producing the three main types of class B carbapenemases which are IMP, VIM and NDM, with or without EDTA and DMSA.
(§2) MICs of imipenem was determined for E. coli TOP10 pCR2.1-(PNDM-1-blaNDM-1-bleMBL) in the presence of 0, 0.01, 0.1 or 1 mg/ml of Ca-EDTA or DMSA by using the broth microdilution method in zinc-complemented M9CA minimum medium (SD7025, Euromedex, France).
(§3) A 100 mM DMSA stock solution (Sigma Aldrich, France) (pH 5.0) was prepared in 0.2 M NaOH as recommended (Maiorino et al. 1990) and pH was neutralized to pH 7.0 with NaHCO3 Na2Ca-EDTA (Sigma Aldrich, France) dissolved in water.
(§4) The strains were as follows: VIM producers (n=10), IMP producers (n=9), NDM-1 producers (n=10). The selected concentration of DMSA was 10-fold (0.3 mM) and 100-fold (3 mM) that of the human peak serum concentration after oral administration (Asiedu et al;, 1995), and that of Ca-EDTA was assayed at the fixed concentration of 0.2 mM (Table 2). […]

[2] = system: K.p. 0709124; assay type: cell-based, K. pneumoniae; details: K.p. 0709124, IMP-1b + TEM-15; no DMSA; unit assumed
Procedure: as §1, §2, §3, §4

[3] = system: K.p. ROUM; assay type: cell-based, K. pneumoniae; details: VIM, no DMSA, unit assumed
Procedure: as §1, §2, §3, §4

[4] = system: K.p. OMA1; assay type: cell-based, K. pneumoniae; details: K.p. OMA1, NDM-1 + TEM-1 +CTX-M-15+ SHV-28 + OXA-1 + OXA-9; no DMSA; unit assumed
Procedure: as §1, §2, §3, §4

[5] = system: K.p. TAW; assay type: cell-based, K. pneumoniae; details: IMP-8 + SHV-5, no DMSA, unit assumed
Procedure: as §1, §2, §3, §4

[6] = system: K.p. KIE; assay type: cell-based, K. pneumoniae; details: NDM-1 + SHV-38 + CMY-16 + OXA-10, no DMSA, unit assumed
Procedure: as §1, §2, §3, §4

[7] = system: E. coli 162; assay type: cell-based; details: E. coli 162, NDM-5 + TEM-1 +CTX-M-15; no DMSA; unit assumed
Procedure: as §1, §2, §3, §4

[8] = system: E. coli 1108013; assay type: cell-based; details: E. coli 1108013, IMP-1 + TEM-1; no DMSA; unit assumed
Procedure: as §1, §2, §3, §4

[9] = system: E. cloacae 1008183; assay type: cell-based; details: E. cloacae 1008183, IMP-1; no DMSA; unit assumed
Procedure: as §1, §2, §3, §4

[10] = system: E. cloacae KOW3; assay type: cell-based; details: E. cloacae KOW3, VIM-1 + CTX-M-15+ TEM-1 + SHV-31; no DMSA; unit assumed
Procedure: as §1, §2, §3, §4

[11] = system: E. cloacae 1008085; assay type: cell-based; details: E. cloacae 1008085, IMP-1; no DMSA; unit assumed
Procedure: as §1, §2, §3, §4

[12] = system: E. coli RIC; assay type: cell-based; details: NDM-1 + CMY-16 + OXA-1 + OXA-10, no DMSA, unit assumed
Procedure: as §1, §2, §3, §4

[13] = system: E. coli DIH; assay type: cell-based; details: VIM-19, no DMSA, unit assumed
Procedure: as §1, §2, §3, §4

[14] = system: E. coli 405; assay type: cell-based; details: E. coli 405, NDM-5 + TEM-1 +CTX-M-15; no DMSA; unit assumed
Procedure: as §1, §2, §3, §4

[15] = system: E. coli 1008077; assay type: cell-based; details: E. coli 1008077, VIM-1 + TEM-3; no DMSA; unit assumed
Procedure: as §1, §2, §3, §4

[16] = system: E. coli FEK; assay type: cell-based; details: NDM-4 + NDM-4 + OXA-1 + CTX-M-15, no DMSA, unit assumed
Procedure: as §1, §2, §3, §4

[17] = system: E. coli IBIS; assay type: cell-based; details: VIM-4, no DMSA, unit assumed
Procedure: as §1, §2, §3, §4

[18] = system: E. coli COUP; assay type: cell-based; details: NDM-7 + OXA-1 +CTX-M-15, no DMSA, unit assumed
Procedure: as §1, §2, §3, §4

[19] = system: E. cloacae TAW; assay type: cell-based; details: IMP-8, no DMSA, unit assumed
Procedure: as §1, §2, §3, §4

[20] = system: E. coli MAD; assay type: cell-based; details: VIM-1 + CTX-M-3, no DMSA, unit assumed
Procedure: as §1, §2, §3, §4

[21] = system: E. coli JAP; assay type: cell-based; details: IMP-1, no DMSA, unit assumed
Procedure: as §1, §2, §3, §4

[22] = system: E. cloacae 1008029; assay type: cell-based; details: E. cloacae 1008029, VIM-1 + CTX-M-3; no DMSA; unit assumed
Procedure: as §1, §2, §3, §4

[23] = system: E. coli BOUN; assay type: cell-based; details: NDM-4 + OXA-1, no DMSA, unit assumed
Procedure: as §1, §2, §3, §4

[24] = system: E. coli ALL; assay type: cell-based; details: NDM-1 + TEM-1 +CTX-M-15+OXA-1 + OXA-2, no DMSA, unit assumed
Procedure: as §1, §2, §3, §4

[25] = system: E. cloacae 396715; assay type: cell-based; details: E. cloacae 396715, VIM-1; no DMSA; unit assumed
Procedure: as §1, §2, §3, §4

[26] = system: E. coli 0404018; assay type: cell-based; details: E. coli 0404018, VIM-1 + CMY-6; no DMSA; unit assumed
Procedure: as §1, §2, §3, §4

[27] = system: E. coli IR5; assay type: cell-based; details: E. coli IR5, NDM-1 + TEM-1 +CTX-M-15; no DMSA; unit assumed
Procedure: as §1, §2, §3, §4

[28] = system: E. cloacae 1008186; assay type: cell-based; details: E. cloacae 1008186, IMP-1; no DMSA; unit assumed
Procedure: as §1, §2, §3, §4

[29] = system: C. freundii MIG; assay type: cell-based; details: VIM-2 + TEM-1 +OXA-9 + OXA-10, no DMSA, unit assumed
Procedure: as §1, §2, §3, §4

`C[C@@H](O)[C@H]1C(=O)N2C(C(=O)O)=C(S[C@@H]3CN[C@H](C(=O)Nc4cccc(C(=O)O)c4)C3)[C@H](C)[C@H]12` [ETP, ertapenem] showed an MIC [1] of over 32 µg/mL, an MIC [2] of 32 µg/mL and an MIC [3] of over 32 µg/mL. For the same compound, the MIC [4] was over 32 µg/mL, the MIC [5] was 0.5 µg/mL and the MIC [6] was 4 µg/mL. The MIC [7] was over 32 µg/mL, the MIC [8] was 32 µg/mL and the MIC [9] was 8 µg/mL. The MIC [10] was over 32 µg/mL, the MIC [11] was 8 µg/mL and the MIC [12] was 8 µg/mL. For the same compound, the MIC [13] was 8 µg/mL, the MIC [14] was over 32 µg/mL and the MIC [15] was over 32 µg/mL. For the same compound, the MIC [16] was over 32 µg/mL, the MIC [17] was 2 µg/mL and the MIC [18] was 32 µg/mL. The MIC [19] was 4 µg/mL, the MIC [20] was 0.25 µg/mL and the MIC [21] was 0.5 µg/mL. It also gave an MIC [22] of over 32 µg/mL, an MIC [23] of 16 µg/mL and an MIC [24] of 16 µg/mL. For the same compound, the MIC [25] was 2 µg/mL, the MIC [26] was 4 µg/mL and the MIC [27] was 32 µg/mL. For the same compound, the MIC [28] was 32 µg/mL and the MIC [29] was 2 µg/mL.
